Laboratory results taken from PubChem BioAssay (NCI).
Several values for one entry are separate records, joined by “and”; a condition that tells them apart may be missing. Identical values can stand only once.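 Compound exposure: 48 hours, 5 concentrations, 96-well plates. Here, GI50 denotes the concentration required for 50% inhibition of growth. TGI: total growth inhibition.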

Legend:
Experiment in all cases: growth of human tumour cells (NCI), 48 h
RXF 393 renal = tested on: RXF 393 renal
UACC-257 melanoma = tested on: UACC-257 melanoma
EKVX NSCLC = tested on: EKVX NSCLC
M14 melanoma = tested on: M14 melanoma
A498 renal = tested on: A498 renal
UACC-62 melanoma = tested on: UACC-62 melanoma
OVCAR-5 ovarian = tested on: OVCAR-5 ovarian
HCC-2998 colon = tested on: HCC-2998 colon
A549 NSCLC = tested on: A549 NSCLC
MCF7 breast = tested on: MCF7 breast

| Compound | GI50 (RXF 393 renal) [µM] | TGI (RXF 393 renal) [µM] | TGI (UACC-257 melanoma) | TGI (EKVX NSCLC) [µM] | GI50 (M14 melanoma) [µM] | TGI (M14 melanoma) | GI50 (A498 renal) [µM] | GI50 (UACC-62 melanoma) [µM] | TGI (UACC-62 melanoma) | GI50 (OVCAR-5 ovarian) [µM] | TGI (OVCAR-5 ovarian) [µM] | TGI (HCC-2998 colon) [µM] | GI50 (A549 NSCLC) [µM] | TGI (A549 NSCLC) [µM] | GI50 (MCF7 breast) [µM] | TGI (MCF7 breast) [µM] | TGI (A498 renal) [µM] | GI50 (UACC-257 melanoma) [µM] | GI50 (EKVX NSCLC) [µM] | GI50 (HCC-2998 colon) [µM] |
| --- | --- | --- | --- | --- | --- | --- | --- | --- | --- | --- | --- | --- | --- | --- | --- | --- | --- | --- | --- | --- |
| NC(=Nc1nc(-c2ccccn2)cc2ccccc12)c1ccccn1 | 0.32 | 0.795 | 0.794 µM and 1.15 µM | > 17.2 | 0.00816 | 0.534 µM and 2.86 µM | 0.0283 | 0.0492 | 0.171 µM and 0.266 µM | 0.176 | > 100 | > 100 | 0.255 | > 48.7 | 0.148 | > 100 | – | – | – | – |
| CC1=NN(C(=O)c2ccncc2)C(=O)C1N=Nc1ccc2ccccc2c1 (stereo not drawn) | – | > 100 | > 100 µM | > 100 | – | > 96.2 µM | – | – | > 100 µM | – | > 100 | 15.2 | – | > 100 | – | > 100 | > 100 | – | – | – |
| CC[C@]12C=CCN3CC[C@@]4(c5ccc(OC)cc5N(C)[C@H]4[C@@](O)(C(=O)OC)[C@@H]1OC(=O)CCC(=O)N[C@H](Cc1c[nH]c4ccccc14)C(=O)OC)[C@@H]32 | 2.22 | 5.72 | 23.1 µM | 35.7 | 4.06 | > 100 µM | 9.29 | 2.42 | 7.19 µM | 14.1 | 45 | 37.9 | 5.36 | 22.1 | 2.98 | 16.1 | 30.8 | 6 | 10.7 | 6.01 |
| N#Cc1c(N)nc(N2CCSCC2)c(C#N)c1-c1ccc(O)cc1 | 35.3 | > 100 | 52.6 µM | > 100 | – | – | 13.4 | 13 | 26.2 µM | 16.1 | 50 | 36.6 | 30.7 | > 100 | 14.1 | 40.2 | 29.8 | 21.9 | 27.5 | 17.2 |
| C/C=C(/C)C(=O)OC1C=C(CO)C(=O)C(OC(=O)C(C)(O)C(C)Cl)C1C(C)C (stereo not drawn) | 1.6 | 3.13 | 3.32 µM | 4.9 | 1.6 | 3.5 µM | 1.9 | 0.744 | 2.05 µM | 0.971 | 2.72 | 3.35 | 2.81 | 9.36 | 0.552 | 3.09 | 3.87 | 1.42 | 2.19 | 1.79 |
| COC(=O)C1=C(C(=O)OC)C2OC1c1cc3ccccc3cc12 | – | 3.29 | 17.5 µM | 17.6 | – | 4.83 µM | – | – | 27.9 µM | – | 11.3 | 23.4 | – | 37 | – | 59.9 | 36.7 | – | – | – |
| Cc1cc(NNC(=O)c2ccccc2O)nc(Nc2nc3ccccc3o2)n1 | 1.69 | 7.3 | 11.5 µM | 15.2 | 0.854 | 3.44 µM | 1.53 | 0.966 | 11.4 µM | 2.52 | 15.9 | 13.8 | 1.13 | 10.3 | 1.88 | 20.7 | 3.25 | 3.25 | 2.81 | 2.13 |
| O=C(Nc1cccc(Cl)c1)c1cc(N=Nc2ccc([N+](=O)[O-])cc2Cl)ccc1O | 2.56 | 6.99 | 6.52 µM | 6.57 | 3.18 | 12.1 µM | 1.94 | 2.44 | 6.65 µM | 2.81 | 10.6 | 5.53 | 3.01 | > 100 | 2.03 | 5.79 | 4.51 | 2.55 | 2.16 | 1.95 |
| CCCCCCN(C)Cc1ccc(OCCOc2ccc(CN(C)CCCCCC)cc2)cc1 | 0.834 | 2.15 | 1.84 µM | 15.1 | 0.448 | 1.83 µM | 1.24 | 1.6 | 3.4 µM | 1.46 | 4.03 | 1.81 | 1.4 | 2.91 | 1.4 | 2.79 | 3.17 | 0.448 | 2.47 | 0.491 |
| COc1cc2ncn(-c3cc(OCc4ccccc4C(F)(F)F)c(C(C)=O)s3)c2cc1OC | > 21.5 | > 25 | > 25 µM | > 25 | > 25 | > 25 µM | 4.1 | > 25 | > 25 µM | > 25 | > 25 | > 25 | > 25 | > 25 | > 25 | > 25 | 17.2 | > 25 | > 25 | > 25 |
| COC(=O)C1=C(O)[C@H](C(=O)OC)[C@]2(O)[C@@H](C(=O)OC)[C@H]1C[C@@H](c1ccc(OC(=O)/C=C/c3ccco3)cc1)[C@@H]2C(=O)OC | 41.6 | > 100 | > 100 µM | 49.1 | 10.7 | 23.2 µM | – | 4.09 | 18.9 µM | 19.1 | 43.3 | 19.3 | 30.5 | > 100 | 40.5 | > 100 | – | 65.5 | 21.9 | 7 |
| COc1ccc(/C=C2\CC(C)CC3C2=NN(c2ccccc2)C3c2ccc(OC)c(OC)c2)cc1OC (stereo not drawn) | > 100 | > 100 | > 100 µM | > 100 | – | – | 14.5 | 4.29 | 17.3 µM | 3.16 | 12.1 | 3.13 | 5.72 | > 100 | 3.23 | 42.6 | 72.7 | 7.94 | 5.61 | 1.69 |
| CC[C@@H](C)Nc1cc(C(=O)NC2CC3CCC(C2)N3c2ccc(C(=O)C3CC3)cn2)c(C)cc1C(N)=O (stereo partly drawn) | 0.0516 | > 100 | 32 µM | – | 0.0489 | > 84 µM | 0.103 | 0.036 | 12.1 µM | 0.0706 | > 100 | 13.5 | 0.0343 | > 100 | < 0.0172 | > 59.6 | > 100 | 0.04 | – | 0.0395 |
